US20090325959A1 (priority 2008, published 2009)
Like-named read-outs stand apart in the source and are kept apart here.

What was measured:
[1] = Compound plasma concentrations in unsensitized mice at 15 min post administration; type: in vivo; conditions: mouse, 15 μmol/kg; mean compound plasma concentration in mice at 15 minutes post oral administration; read-out: Mouse Oral PK
Protocol: Additionally, compound concentrations were determined in the plasma and lungs of male, ovalbumin-sensitized, Balb/c mice from a murine model of asthma. Test compounds were formulated in water or 1% polysorbate 80 and dosed at 15 μmol/kg for intraperitoneal (IP) or oral (PO) administration or formulated for intratracheal (IT) administration and dosed at 5 μmol/kg, which directly targets the lungs. Following completion of the in vivo study, mice were euthanized and blood and plasma collected approximately 2.5-3 hours post administration of test compound for bronchodialator (BD) studies and 24 hours post administration for anti-inflamatory (AI) studies. Lungs were homogenized in Matrix A lysing tubes using a FastPrep 24 tissue and cell homogenizer (MP Biomedicals, Solon, Ohio). Both plasma samples and lung extracts were assayed for compound concentrations using an on-line, solid phase extraction LC/MS/MS system.

ROCK2 = molecular target: T1, ROCK2 (Homo sapiens, UniProt O75116); assay: Rho kinase inhibition assay (IMAP fluorescence polarization), ROCK2; type: biochemical;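 further: kinase reaction started with 10 µM ATP and run 60 min at room temperature, then phosphorylated substrate captured on IMAP beads for 30 min and fluorescence polarization read in mP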
T1 construct: purchased Upstate/Chemicon 14-451
T1 sequence (O75116 11-552 limits assumed): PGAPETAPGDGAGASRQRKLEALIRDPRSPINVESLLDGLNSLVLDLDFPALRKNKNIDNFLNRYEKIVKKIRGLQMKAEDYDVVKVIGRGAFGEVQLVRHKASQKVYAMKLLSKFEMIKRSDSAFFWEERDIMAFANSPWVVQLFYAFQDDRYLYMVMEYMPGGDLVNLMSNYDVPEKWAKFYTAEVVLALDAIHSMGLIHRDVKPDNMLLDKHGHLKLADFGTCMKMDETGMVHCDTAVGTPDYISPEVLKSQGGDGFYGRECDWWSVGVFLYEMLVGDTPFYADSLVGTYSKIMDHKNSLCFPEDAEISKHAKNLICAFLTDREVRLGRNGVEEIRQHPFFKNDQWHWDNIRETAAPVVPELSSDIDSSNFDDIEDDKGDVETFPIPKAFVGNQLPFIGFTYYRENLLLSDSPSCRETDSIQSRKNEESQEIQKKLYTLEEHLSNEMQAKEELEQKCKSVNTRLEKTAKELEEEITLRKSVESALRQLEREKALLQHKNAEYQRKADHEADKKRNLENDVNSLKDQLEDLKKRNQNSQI
Protocol: (§1) Following the pre-incubation, 10 μM ATP was added to initiate the reaction. After 60 minutes at room temperature, Molecular Devices IMAP™ binding solution was added to bind phosphorylated substrate. After 30 minutes of incubation in the presence of the IMAP™ beads, the fluorescence polarization was read and the ratio was reported as mP. IC50 values for compounds and EC50 values for ATP were calculated using the Prism software from Graphpad.

p70S6K human enzyme = molecular target: T2, p70S6K human enzyme (Homo sapiens, UniProt P23443, T412E); assay: p70S6K inhibition assay (IMAP FP); type: biochemical;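 further: kinase reaction run at room temperature, phosphorylated substrate captured on IMAP beads and read as fluorescence polarization in mP, IC50 then converted to Ki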
T2 construct: purchased Upstate Chemicon 14-486
T2 sequence (P23443 1-421 T412E limits assumed): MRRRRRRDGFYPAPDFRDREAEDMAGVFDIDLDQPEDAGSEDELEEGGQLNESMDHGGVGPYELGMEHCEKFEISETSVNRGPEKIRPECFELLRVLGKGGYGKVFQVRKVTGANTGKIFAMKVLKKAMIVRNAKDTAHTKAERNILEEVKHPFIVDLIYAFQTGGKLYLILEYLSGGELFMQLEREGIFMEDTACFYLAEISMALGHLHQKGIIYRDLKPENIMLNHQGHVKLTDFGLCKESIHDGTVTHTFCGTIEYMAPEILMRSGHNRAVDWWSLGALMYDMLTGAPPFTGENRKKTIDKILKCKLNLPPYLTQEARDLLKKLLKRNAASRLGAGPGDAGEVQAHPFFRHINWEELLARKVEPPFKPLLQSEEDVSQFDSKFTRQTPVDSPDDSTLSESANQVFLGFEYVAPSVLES

ROCK1 = molecular target: T3, ROCK1 (Homo sapiens, UniProt Q13464); assay: Rho kinase inhibition assay (IMAP fluorescence polarization), ROCK1; type: biochemical;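 further: kinase reaction run 60 min at room temperature, then phosphorylated substrate captured on IMAP beads for 30 min, with fluorescence polarization read in mP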
T3 construct: purchased Upstate/Chemicon 14-601
T3 sequence (Q13464 17-535 limits assumed): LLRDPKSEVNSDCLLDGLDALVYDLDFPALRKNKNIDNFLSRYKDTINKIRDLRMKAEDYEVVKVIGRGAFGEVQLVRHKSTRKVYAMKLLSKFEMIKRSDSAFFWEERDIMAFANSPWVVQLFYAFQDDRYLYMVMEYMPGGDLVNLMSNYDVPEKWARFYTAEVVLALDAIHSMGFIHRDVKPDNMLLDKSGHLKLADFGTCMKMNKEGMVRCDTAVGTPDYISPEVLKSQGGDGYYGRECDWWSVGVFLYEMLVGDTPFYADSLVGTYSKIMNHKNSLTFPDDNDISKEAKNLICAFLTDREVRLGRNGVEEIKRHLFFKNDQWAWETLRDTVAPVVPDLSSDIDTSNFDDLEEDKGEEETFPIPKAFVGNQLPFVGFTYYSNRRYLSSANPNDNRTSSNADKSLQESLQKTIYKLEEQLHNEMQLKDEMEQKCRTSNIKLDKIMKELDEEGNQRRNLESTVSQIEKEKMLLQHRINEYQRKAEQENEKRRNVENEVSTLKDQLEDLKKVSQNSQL
Protocol: as §1

Akt3 human enzyme = molecular target: T4, Akt3 human enzyme (Homo sapiens, UniProt Q9Y243); assay: Akt3 inhibition assay (IMAP FP); type: biochemical;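 further: kinase reaction run 60 min at room temperature after 30 µM ATP start, phosphorylated substrate captured on IMAP beads and read as fluorescence polarization (mP)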
T4 construct: purchased Upstate Chemicon 14-502
T4 sequence (Q9Y243 whole entry): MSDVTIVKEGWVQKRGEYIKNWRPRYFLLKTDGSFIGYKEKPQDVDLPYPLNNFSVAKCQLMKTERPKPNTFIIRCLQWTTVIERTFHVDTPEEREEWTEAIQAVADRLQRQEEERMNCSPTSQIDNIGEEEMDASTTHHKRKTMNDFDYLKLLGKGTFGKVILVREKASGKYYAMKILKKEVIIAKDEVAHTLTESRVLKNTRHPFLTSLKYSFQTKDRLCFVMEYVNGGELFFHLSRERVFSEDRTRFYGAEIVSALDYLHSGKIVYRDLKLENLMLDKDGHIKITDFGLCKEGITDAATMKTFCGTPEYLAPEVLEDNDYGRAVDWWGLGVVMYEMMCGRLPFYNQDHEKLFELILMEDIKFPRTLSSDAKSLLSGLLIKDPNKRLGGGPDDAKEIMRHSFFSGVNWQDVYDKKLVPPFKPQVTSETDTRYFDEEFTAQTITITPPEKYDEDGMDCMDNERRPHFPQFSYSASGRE

[2] = 10 μM ATP, read-out: ROCK2 Ki, Avg
[3] = 30 μM ATP, Ki=IC50/(1+([ATP Challenge]/EC50 ATP)), read-out: p70S6K Ki, Avg
[4] = average Ki, read-out: p70S6K Ki
[5] = 30 μM ATP, Ki=IC50/(1+([ATP Challenge]/EC50 ATP)), read-out: Akt3 Ki, Avg

Row | Compound | concentration at 15 min [1] | Ki (ROCK2; [2]) | Ki (ROCK2; average Ki, read-out: ROCK2 Ki) | Ki (p70S6K human enzyme; [3]) | Ki (p70S6K human enzyme; [4]) | Ki (ROCK1; Avg, 10 μM ATP) | Ki (ROCK1; average Ki) | Ki (Akt3 human enzyme; [5]) | Ki (Akt3 human enzyme; average Ki, read-out: Akt3 Ki)
1 | COc1ccc(CN2CCC[C@H](Nc3ccc4[nH]ncc4c3)C2)cc1 [Compound 1.079, (S)-N-(1-(4-methoxybenzyl)piperidin-3-yl)-1H-indazol-5-amine] | 2440 nM | 4.7 nM | 4.7 nM | 3010 nM | 3010 nM | 71.5 nM | 71.5 nM | 7.19 µM | 7.19 µM
2 | CS(=O)(=O)Nc1cccc(CN2CCC[C@@H](Nc3ccc4[nH]ncc4c3)C2)c1 [Compound 1.093, (R)-N-(3-((3-(1H-indazol-5-ylamino)piperidin-1-yl)methyl)phenyl)methanesulfonamide] | 363 nM | 7.7 nM | 7.7 nM | 2030 nM | 2030 nM | 64.5 nM | 64.5 nM | 1.82 µM | 1.82 µM
3 | OCCn1ccc2ccc(CN3CCC[C@H](Nc4ccc5[nH]ncc5c4)C3)cc21 [Compound 1.109, (S)-2-(6-((3-(1H-indazol-5-ylamino)piperidin-1-yl)methyl)-1H-indol-1-yl)ethanol] | 187 nM | 9.6 nM | 9.6 nM | 2500 nM | 2500 nM | 58.8 nM | 58.8 nM | 5.19 µM | 5.19 µM
4 | Cc1ccc(CN2CCC[C@@H](Nc3ccc4[nH]ncc4c3)C2)cc1 [Compound 1.133, (R)-N-(1-(4-methylbenzyl)piperidin-3-yl)-1H-indazol-5-amine] | 1100 nM | 4.3 nM | 4.3 nM | 532 nM | 532 nM | 25 nM | 25 nM | 0.148 µM | 0.148 µM
5 | Brc1ccc(CN2CCC[C@@H](Nc3ccc4[nH]ncc4c3)C2)cc1 [Compound 1.134, (R)-N-(1-(4-bromobenzyl)piperidin-3-yl)-1H-indazol-5-amine] | 1550 nM | 4.4 nM | 4.4 nM | 520 nM | 520 nM | 22.4 nM | 22.4 nM | 0.151 µM | 0.151 µM
6 | Cc1ccc(CN2CCC[C@@H](Nc3ccc4[nH]ncc4c3)C2)c(C)c1 [Compound 1.137, (R)-N-(1-(2,4-dimethylbenzyl)piperidin-3-yl)-1H-indazol-5-amine] | 557 nM | 5.1 nM | 7.2 nM | 354 nM | 354 nM | 25.8 nM | 36.3 nM | 0.198 µM | 0.198 µM
7 | Clc1ccc(CN2CCC[C@H](Nc3ccc4[nH]ncc4c3)C2)cc1 [Compound 1.141, (S)-N-(1-(4-chlorobenzyl)piperidin-3-yl)-1H-indazol-5-amine] | 1640 nM | 3.8 nM | 3.8 nM | 387 nM | 387 nM | 28.5 nM | 28.5 nM | 1.26 µM | 1.26 µM
8 | c1cc2cc(CN3CCC[C@H](Nc4ccc5[nH]ncc5c4)C3)ccc2[nH]1 [Compound 1.149, (S)-N-(1-((1H-indol-5-yl)methyl)piperidin-3-yl)-1H-indazol-5-amine] | 1560 nM | 4.2 nM | 4.2 nM | 1890 nM | 1890 nM | 46.8 nM | 46.8 nM | 7.4 µM | 7.4 µM
9 | c1cc2cc(CN3CCC[C@H](Nc4ccc5[nH]ncc5c4)C3)ccc2o1 [Compound 1.150, (S)-N-(1-(benzofuran-5-ylmethyl)piperidin-3-yl)-1H-indazol-5-amine] | 1390 nM | 3.2 nM | 3.2 nM | 1270 nM | 1270 nM | 33.2 nM | 33.2 nM | 3.18 µM | 3.18 µM
10 | Cc1ccc(CN2CCC[C@H](Nc3ccc4[nH]ncc4c3)C2)cc1OCCO [Compound 1.152, (S)-2-(5-((3-(1H-indazol-5-ylamino)piperidin-1-yl)methyl)-2-methylphenoxy)ethanol] | 435 nM | 3.3 nM | 3.3 nM | 523 nM | 523 nM | 19.8 nM | 19.8 nM | 1.98 µM | 1.98 µM
11 | C#Cc1cccc(CN2CCC[C@H](Nc3ccc4[nH]ncc4c3)C2)c1 [Compound 1.153, (S)-N-(1-(3-ethynylbenzyl)piperidin-3-yl)-1H-indazol-5-amine] | 522 nM | 4.2 nM | 4.2 nM | 2380 nM | 2380 nM | 62.8 nM | 62.8 nM | 9.95 µM | 9.95 µM
12 | Cc1ccc(CN2CCC[C@H](Nc3ccc4[nH]ncc4c3)C2)c(C)c1 [Compound 1.155, (S)-N-(1-(2,4-dimethylbenzyl)piperidin-3-yl)-1Hindazol-5-amine] | 32 nM | 7 nM | 7 nM | 1750 nM | 1750 nM | 45.4 nM | 45.4 nM | 5.68 µM | 5.68 µM
13 | Cc1cccc(CN2CCC[C@H](Nc3ccc4[nH]ncc4c3)C2)c1C [Compound 1.156, (S)-N-(1-(2,3-dimethylbenzyl)piperidin-3-yl)-1H-indazol-5-amine] | 88 nM | 13 nM | 13 nM | 3240 nM | 3240 nM | 136 nM | 136 nM | 8.77 µM | 8.77 µM
14 | CS(=O)(=O)Cc1cccc(CN2CCC[C@H](Nc3ccc4[nH]ncc4c3)C2)c1 [Compound 1.157, (S)-N-(1-(3-(methylsulfonylmethyl)benzyl)piperidin-3-yl)-1H-indazol-5-amine] | 357 nM | 8.8 nM | 8.8 nM | 8690 nM | 8690 nM | 264 nM | 264 nM | 29.2 µM | 29.2 µM
15 | CSc1cccc(CN2CCC[C@H](Nc3ccc4[nH]ncc4c3)C2)c1 [Compound 1.158, (S)-N-(1-(3-(methylthio)benzyl)piperidin-3-yl)-1H-indazol-5-amine] | 102 nM | 5.1 nM | 5.1 nM | 1970 nM | 1970 nM | 64.1 nM | 64.1 nM | 5.91 µM | 5.91 µM
16 | Oc1cccc(CN2CCC[C@H](Nc3ccc4[nH]ncc4c3)C2)c1 [Compound 1.163, (S)-3-((3-(1H-indazol-5-ylamino)piperidin-1-yl)methyl)phenol] | 10 nM | 2.9 nM | 2.9 nM | 1880 nM | 1880 nM | 33.6 nM | 33.6 nM | 4.42 µM | 4.42 µM
17 | Fc1ccc(CN2CCC[C@H](Nc3ccc4[nH]ncc4c3)C2)cc1 [Compound 1.164, (S)-N-(1-(4-fluorobenzyl)piperidin-3-yl)-1H-indazol-5-amine] | 1500 nM | 6.1 nM | 6.1 nM | 1960 nM | 1960 nM | 42.4 nM | 42.4 nM | 4.31 µM | 4.31 µM
